Assays:
[1] = The drug is tested on Bacteroides finegoldii strain: DSM17565 for biotransformation. The drug concentrations were measured before and after a 12-h incubation by liquid-chromatography-coupled mass spectrometry (LC–MS); conditions: 2 µM
[2] = enterocloster bolteae, 12 h, 2 µM
Description: The drug is tested on Clostridium bolteae strain: ATCCBAA-613 for biotransformation. The drug concentrations were measured before and after a 12-h incubation by liquid-chromatography-coupled mass spectrometry (LC–MS)

[3] = The drug is tested on Bacteroides fragilis strain: HMW615 for biotransformation. The drug concentrations were measured before and after a 12-h incubation by liquid-chromatography-coupled mass spectrometry (LC–MS); conditions: 2 µM
[4] = The drug is tested on Edwardsiella tarda strain: ATCC23685 for biotransformation. The drug concentrations were measured before and after a 12-h incubation by liquid-chromatography-coupled mass spectrometry (LC–MS); conditions: 2 µM
[5] = The drug is tested on Clostridium ramosum strain: DSM1402 for biotransformation. The drug concentrations were measured before and after a 12-h incubation by liquid-chromatography-coupled mass spectrometry (LC–MS); conditions: thomasclavelia ramosa, 2 µM
[6] = The drug is tested on Coprococcus comes strain: ATCC27758 for biotransformation. The drug concentrations were measured before and after a 12-h incubation by liquid-chromatography-coupled mass spectrometry (LC–MS); assay type: ADME; set-up: dose 2 uM, timepoint 0 vs 12 hours; conditions: 2 µM
[7] = anaerostipes sp., 12 h, 2 µM
Description: The drug is tested on Anaerostipes sp. strain: fecal isolate for biotransformation. The drug concentrations were measured before and after a 12-h incubation by liquid-chromatography-coupled mass spectrometry (LC–MS)

[8] = The drug is tested on Bifidobacterium ruminantium strain: fecal isolate for biotransformation. The drug concentrations were measured before and after a 12-h incubation by liquid-chromatography-coupled mass spectrometry (LC–MS); conditions: 2 µM
[9] = The drug is tested on Bacteroides sp. WH2 strain: WH2 for biotransformation. The drug concentrations were measured before and after a 12-h incubation by liquid-chromatography-coupled mass spectrometry (LC–MS); conditions: bacteroides sp. wh2, 12 h, 2 µM
[10] = The drug is tested on Collinsella aerofaciens strain: ATCC25986 for biotransformation. The drug concentrations were measured before and after a 12-h incubation by liquid-chromatography-coupled mass spectrometry (LC–MS); conditions: 2 µM
[11] = The drug is tested on Ruminococcus torques strain: ATCC27756 for biotransformation. The drug concentrations were measured before and after a 12-h incubation by liquid-chromatography-coupled mass spectrometry (LC–MS); assay type: ADME; set-up: dose 2 uM, timepoint 0 vs 12 hours; conditions: 2 µM
[12] = The drug is tested on Blautia luti strain: DSM14534 for biotransformation. The drug concentrations were measured before and after a 12-h incubation by liquid-chromatography-coupled mass spectrometry (LC–MS); assay type: ADME; set-up: dose 2 uM, timepoint 0 vs 12 hours; conditions: 2 µM
[13] = The drug is tested on Ruminococcus gnavus strain: ATCC29149 for biotransformation. The drug concentrations were measured before and after a 12-h incubation by liquid-chromatography-coupled mass spectrometry (LC–MS); conditions: mediterraneibacter gnavus, 2 µM
[14] = The drug is tested on Bacteroides caccae strain: ATCC43185 for biotransformation. The drug concentrations were measured before and after a 12-h incubation by liquid-chromatography-coupled mass spectrometry (LC–MS); conditions: 2 µM
[15] = The drug is tested on Eubacterium rectale strain: ATCC33656 for biotransformation. The drug concentrations were measured before and after a 12-h incubation by liquid-chromatography-coupled mass spectrometry (LC–MS); conditions: agathobacter rectalis, 2 µM
[16] = The drug is tested on Bacteroides fragilis strain: HMW610 for biotransformation. The drug concentrations were measured before and after a 12-h incubation by liquid-chromatography-coupled mass spectrometry (LC–MS); conditions: 2 µM
[17] = The drug is tested on Bacteroides dorei strain: DSM17855 for biotransformation. The drug concentrations were measured before and after a 12-h incubation by liquid-chromatography-coupled mass spectrometry (LC–MS); conditions: phocaeicola dorei, 2 µM
[18] = The drug is tested on Alistipes indistinctus strain: DSM22520 for biotransformation. The drug concentrations were measured before and after a 12-h incubation by liquid-chromatography-coupled mass spectrometry (LC–MS); conditions: 2 µM
[19] = The drug is tested on Anaerococcus hydrogenalis strain: DSM7454 for biotransformation. The drug concentrations were measured before and after a 12-h incubation by liquid-chromatography-coupled mass spectrometry (LC–MS); conditions: 2 µM
[20] = The drug is tested on Enterobacter cancerogenus strain: ATCC35316 for biotransformation. The drug concentrations were measured before and after a 12-h incubation by liquid-chromatography-coupled mass spectrometry (LC–MS); conditions: 2 µM

Row | Structure (SMILES) | Bacterial Biotransformation [1] | Bacterial Biotransformation [2] | Bacterial Biotransformation [3] | Bacterial Biotransformation [4] | Bacterial Biotransformation [5] | Bacterial Biotransformation [6] | Bacterial Biotransformation [7] | Bacterial Biotransformation [8] | Bacterial Biotransformation [9] | Bacterial Biotransformation [10] | Bacterial Biotransformation [11] | Bacterial Biotransformation [12] | Bacterial Biotransformation [13] | Bacterial Biotransformation [14] | Bacterial Biotransformation [15] | Bacterial Biotransformation [16] | Bacterial Biotransformation [17] | Bacterial Biotransformation [18] | Bacterial Biotransformation [19] | Bacterial Biotransformation [20]
1 | COc1ccccc1OCC(O)COC(N)=O (stereo not drawn) [METHOCARBAMOL] | Compound NOT metabolized | Compound NOT metabolized | Compound NOT metabolized | Compound NOT metabolized | Compound NOT metabolized | Compound NOT metabolized | Compound NOT metabolized | Compound NOT metabolized | Compound NOT metabolized | Compound NOT metabolized | Compound NOT metabolized | Compound NOT metabolized | Compound NOT metabolized | Compound NOT metabolized | Compound NOT metabolized | Compound NOT metabolized | Compound NOT metabolized | Compound NOT metabolized | – | –
2 | Cc1cc2c(s1)Nc1ccccc1N=C2N1CCN(C)CC1 [OLANZAPINE] | Compound NOT metabolized | Compound NOT metabolized | Compound metabolized | Compound NOT metabolized | Compound NOT metabolized | Compound NOT metabolized | Compound NOT metabolized | Compound NOT metabolized | – | Compound NOT metabolized | Compound NOT metabolized | Compound NOT metabolized | Compound NOT metabolized | Compound NOT metabolized | Compound NOT metabolized | Compound metabolized | Compound NOT metabolized | Compound NOT metabolized | Compound NOT metabolized | –
3 | CN1CCOC(c2ccccc2)c2ccccc2C1 (stereo not drawn) [NEFOPAM] | Compound NOT metabolized | Compound NOT metabolized | – | Compound NOT metabolized | – | Compound NOT metabolized | Compound NOT metabolized | Compound NOT metabolized | Compound NOT metabolized | Compound NOT metabolized | Compound NOT metabolized | Compound NOT metabolized | Compound NOT metabolized | Compound NOT metabolized | Compound NOT metabolized | Compound NOT metabolized | – | – | Compound NOT metabolized | Compound NOT metabolized
4 | O=C(Nc1ccccc1)OCC(CN1CCCCC1)OC(=O)Nc1ccccc1 (stereo not drawn) [DIPERODON] | Compound NOT metabolized | Compound NOT metabolized | Compound NOT metabolized | Compound NOT metabolized | Compound NOT metabolized | Compound NOT metabolized | Compound NOT metabolized | Compound NOT metabolized | Compound NOT metabolized | Compound NOT metabolized | Compound NOT metabolized | Compound NOT metabolized | Compound NOT metabolized | Compound NOT metabolized | Compound NOT metabolized | Compound NOT metabolized | Compound NOT metabolized | Compound NOT metabolized | Compound NOT metabolized | –
5 | OCCN1CCN(CCCN2c3ccccc3Sc3ccc(C(F)(F)F)cc32)CC1 [FLUPHENAZINE] | Compound metabolized | Compound NOT metabolized | Compound NOT metabolized | Compound NOT metabolized | Compound metabolized | Compound metabolized | Compound metabolized | Compound NOT metabolized | Compound NOT metabolized | Compound NOT metabolized | Compound NOT metabolized | Compound NOT metabolized | Compound NOT metabolized | Compound metabolized | Compound metabolized | – | Compound metabolized | Compound NOT metabolized | Compound NOT metabolized | –
6 | C#C[C@]1(OC(C)=O)CC[C@H]2[C@@H]3CCC4=CC(=O)CC[C@@H]4[C@H]3CC[C@@]21C [NORETHINDRONE ACETATE] | Compound metabolized | Compound metabolized | Compound metabolized | Compound NOT metabolized | Compound NOT metabolized | Compound NOT metabolized | Compound metabolized | Compound NOT metabolized | Compound metabolized | Compound metabolized | Compound metabolized | Compound metabolized | Compound metabolized | Compound metabolized | Compound metabolized | Compound metabolized | Compound metabolized | Compound metabolized | Compound NOT metabolized | –
